In PubChem BioAssay (NCI):
Values joined by “and” are separate entries in the source; they are usually repeats but may differ in a detail not shown here. Equal values may be shown once.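 96-well plates; 48 h exposure; 5 concentrations. Endpoints by linear interpolation between flanking doses. Not reached: highest tested concentration assigned. The concentration for 50% growth inhibition is given as GI50. Definition used: TGI = concentration required for complete inhibition of growth.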 Where a SMILES comes first, the peptide text is derived from it. [ ]: non-standard residue; d: D form. The star is where a group is joined. NMeF = CN[CH](Cc1ccccc1)C(=O)O; NMeV = CN[CH](C(=O)O)C(C)C; Boc = CC(C)(C)OC(=O)*; OBn = c1ccc(CO*)cc1

Tests used:
Test in all cases: NCI tumour cell line growth inhibition, 48 h
P388/ADR leukemia = system: P388/ADR leukemia
M19-MEL melanoma = system: M19-MEL melanoma
DMS 273 small cell lung = system: DMS 273 small cell lung
SN12K1 renal = system: SN12K1 renal
P388 leukemia = system: P388 leukemia
XF 498 CNS = system: XF 498 CNS
DMS 114 small cell lung = system: DMS 114 small cell lung
KM20L2 colon = system: KM20L2 colon
RXF-631 renal = system: RXF-631 renal
LXFL 529 NSCLC = system: LXFL 529 NSCLC

Row | Compound | TGI (P388/ADR leukemia) | TGI (M19-MEL melanoma) | TGI (DMS 273 small cell lung) | TGI (SN12K1 renal) | TGI (P388 leukemia) | TGI (XF 498 CNS) | TGI (DMS 114 small cell lung) | TGI (KM20L2 colon) | TGI (RXF-631 renal) | TGI (LXFL 529 NSCLC) | GI50 (M19-MEL melanoma) | GI50 (XF 498 CNS) | GI50 (LXFL 529 NSCLC) | GI50 (KM20L2 colon)
1 | Cc1cc(O)c2c(c1)C(=O)c1c(c(O)cc(O)c1-c1c(O)cc(O)c3c1C(=O)c1cc(C)cc(O)c1C3=O)C2=O | 99.8 µM | 59.4 µM | 30.3 µM | 39.9 µM | 63 µM | 53.4 µM | 63 µM | 52.2 µM | – | – | – | – | – | –
2 | Nc1nc(SCC(=O)c2ccccc2)c2[nH]cnc2n1 | – | > 100 µM | > 100 µM | – | – | > 100 µM | > 100 µM | > 100 µM | – | – | – | – | – | –
3 | Cc1ccc(Nc2cccc3c2C(=O)c2cccc(Nc4ccc(C)cc4S(=O)(=O)O)c2C3=O)c(S(=O)(=O)O)c1 | – | > 100 µM | > 100 µM | – | – | – | > 100 µM | > 100 µM | > 100 µM | > 100 µM | – | – | – | –
4 | CC(=O)[O-].CC(=O)[O-].O=C(N/N=C/c1cc(Cl)cc(Cl)c1[OH2+])c1ccncc1.[Mn+2] | – | – | – | – | – | – | – | 16 µM | – | – | – | – | – | –
5 | CC(C)C(NC(=O)OC(C)(C)C)C(=O)N(C)C(Cc1ccccc1)C(=O)N(C)C(C(=O)OCc1ccccc1)C(C)C (stereo not drawn) (Boc-Val-[NMeF]-[NMeV]-OBn; configuration not given here) | – | > 100 µM | > 100 µM | – | – | 9.63 µM and 74.8 µM | > 100 µM | > 100 µM | – | > 100 µM | 87.4 µM and 42.2 µM | 3.54 µM and 28.6 µM | 14.1 µM and 33.2 µM | > 100 µM and 49.3 µM
6 | Cc1cc(=O)oc2c1cc1ccc3cccc4ccc2c1c34 | – | > 100 µM | – | – | – | – | – | > 100 µM | – | > 100 µM | – | – | – | –
7 | CCN(CC)CCNc1ccc2ncn3c4ccc(OC)cc4c(=O)c1c23 | – | 20.4 µM | 14.9 µM | – | – | 25.1 µM | 25.2 µM | 8.76 µM | 15.8 µM | 20 µM | – | – | – | –
8 | O=C(NN1C(=O)CS(=O)(=O)C1c1ccc(Cl)c(Cl)c1)c1ccncc1 (configuration not stated) | > 74.8 µM | > 100 µM | > 31.6 µM | > 100 µM | > 60.1 µM | > 100 µM | > 100 µM | > 100 µM | – | – | – | – | – | –
9 | C=C1CC(OC)(C(OC)C(=O)N[C@H]2OCO[C@H]3C2O[C@H](C[C@@H](COC)OC)C(C)(C)C3OC)O[C@H](C)[C@@H]1C (some centres not stated) | 1.4 µM | 5.93 µM | 3.79 µM | 15.2 µM | 0.691 µM | 2.54 µM | 13.9 µM | > 47 µM | – | – | – | – | – | –
10 | CCN(CC)C(=O)CCn1cc(F)c(=O)[nH]c1=O | – | > 100 µM | > 100 µM | – | – | > 100 µM | > 100 µM | > 100 µM | – | > 100 µM | – | – | – | –
11 | CNC(=O)C(C)Oc1ccc(OCC2CCCCC2)cc1 (configuration not stated) | – | > 100 µM | > 100 µM | – | – | – | > 100 µM | – | – | > 100 µM | – | – | – | –
12 | ICC1CCCO1 (configuration not stated) | – | – | > 100 µM | – | – | > 100 µM | > 100 µM | > 100 µM | > 100 µM | > 100 µM | – | – | – | –
